The text below walks through data of US8999970B2, “Administration of an anti-obesity compound to individuals with renal impairment” (Arena Pharmaceuticals, Inc., priority 2010, dated 2015).

Entries after “also recorded” stand apart in the source; their conditions may differ.

A short description of the series: Dynamic moisture (vapor) sorption of Form III. The class given is physicochemical.

For `C[C@H]1CNCCc2ccc(Cl)cc21.C[C@H]1CNCCc2ccc(Cl)cc21.Cl.Cl.O` [(R)-8-chloro-1-methyl-2,3,4,5-tetrahydro-1H-3-benzazepine hydrochloride hemihydrate, Form III], the “Hygroscopicity (DMS / DVS)” value is “substantially non-hygroscopic; also recorded: FIG. 9: non-hygroscopic”. Also, under “90% RH”, the Water adsorbed result is given as “less than 0.5 wt %”.
